Format in all cases: in vivo
The test system of test [1] is Plutella xylostella (Diamond Back Moth). The test can be described thus: Example B4: Plutella xylostella (diamond back moth), treated artificial diet, eggs. Particulars: 192 h, application rate of 200 ppm, 8 days after infestation, in comparison to untreated samples, read-out: effect in at least one of the two categories (mortality or growth inhibition). The method, then: Example B4: Plutella xylostella (Diamond Back Moth
24-well microtiter plates with artificial diet were treated with aqueous test solutions prepared from 10′000 ppm DMSO stock solutions by pipetting. After drying, Plutella eggs were pipetted through a plastic stencil onto a gel blotting paper and the plate was closed with it. The samples were assessed for mortality and growth inhibition in comparison to untreated samples 8 days after infestation.

Test [2] relates to Spodoptera littoralis (Egyptian Cotton Leaf Worm). Put plainly: Example B7: Spodoptera littoralis (Egyptian cotton leaf worm), sprayed cotton leaf discs, L1 larvae. Particulars: foliar, 72 h, application rate of 200 ppm, 3 days after infestation, in comparison to untreated samples. The method, then:
Example B7: Spodoptera littoralis (Egyptian Cotton Leaf Worm
Cotton leaf discs were placed onto agar in 24-well microtiter plates and sprayed with aqueous test solutions prepared from 10′000 ppm DMSO stock solutions. After drying the leaf discs were infested with five L1 larvae. The samples were assessed for mortality, anti-feeding effect, and growth inhibition in comparison to untreated samples 3 days after infestation. Control of Spodoptera littoralis by a test sample is given when at least one of the categories mortality, anti-feedant effect, and growth inhibition is higher than the untreated sample.

Test [3] concerns Diabrotica balteata (Corn Root Worm). The test can be described thus: Example B1: Diabrotica balteata (corn root worm), sprayed maize sprouts on agar, L2 larvae. The note with it: 96 h, application rate of 200 ppm, 4 days after infestation, in comparison to untreated samples, read-out: effect in at least one of the two categories (mortality or growth inhibition). The method, then: Example B1: Diabrotica balteata (Corn Root Worm
Maize sprouts placed onto an agar layer in 24-well microtiter plates were treated with aqueous test solutions prepared from 10′000 ppm DMSO stock solutions by spraying. After drying, the plates were infested with L2 larvae (6 to 10 per well). The samples were assessed for mortality and growth inhibition in comparison to untreated samples 4 days after infestation.

Where only a bound is given, the exact number is not on record here.

As for `CCN=S(=O)(c1ccc2oc(-c3ncc(-n4ccc(Cl)n4)cc3S(=O)(=O)CC)nc2c1)C(F)(F)F` (stereo not shown) [P38, [2-[5-(3-chloropyrazol-1-yl)-3-ethylsulfonyl-2-pyridyl]-1,3-benzoxazol-5-yl]-ethylimino-oxo-(trifluoromethyl)-λ^6-sulfane], the percent effect (mortality or growth inhibition) at 200 ppm in test [1] and in test [3] was no less than 80% in each case. The molecule also registered a percent control (mortality, anti-feeding effect or growth inhibition) at 200 ppm in test [2] of no less than 80%.
On to `CCS(=O)(=O)c1cccnc1-c1nc2cc(S(=O)(=NC#N)C(F)(F)F)ccc2o1` (stereo not shown) [P15, [[2-(3-ethylsulfonyl-2-pyridyl)-1,3-benzoxazol-5-yl]-oxo-(trifluoromethyl)-λ^6-sulfanylidene]cyanamide], for which the percent effect (mortality or growth inhibition) at 200 ppm in test [1] and in test [3] was no less than 80% each time.
As to `CCS(=O)(=O)c1ccc(-n2cnc(C(F)(F)F)n2)nc1-c1nc2cc(S(=N)(=O)C(F)(F)F)ccc2n1C` (stereo not shown) [P48, [2-[3-ethylsulfonyl-6-[3-(trifluoromethyl)-1,2,4-triazol-1-yl]-2-pyridyl]-1-methyl-benzimidazol-5-yl]-imino-oxo-(trifluoromethyl)-λ^6-sulfane], the percent effect (mortality or growth inhibition) at 200 ppm in test [1] and in test [3] was no less than 80% throughout. This molecule gave a percent control (mortality, anti-feeding effect or growth inhibition) at 200 ppm in test [2] of no less than 80%.
In the case of `CCN=S(=O)(c1ccc2c(c1)nc(-c1nc(-n3cnc(Cl)n3)ccc1S(=O)(=O)CC)n2C)C(F)(F)F` (stereo not shown) [P47, [2-[6-(3-chloro-1,2,4-triazol-1-yl)-3-ethylsulfonyl-2-pyridyl]-1-methyl-benzimidazol-5-yl]-ethylimino-oxo-(trifluoromethyl)-λ^6-sulfane], the percent effect (mortality or growth inhibition) at 200 ppm in test [1] and in test [3] was no less than 80% throughout. This molecule also gave a percent control (mortality, anti-feeding effect or growth inhibition) at 200 ppm in test [2] of no less than 80%.
For the molecule `CCS(=O)(=O)c1cc(-n2ccc(C(F)(F)F)n2)cnc1-c1nc2cc(S(=N)(=O)C(F)(F)F)ccc2o1` (stereo not shown) [P6, [2-[3-ethylsulfonyl-5-[3-(trifluoromethyl)pyrazol-1-yl]-2-pyridyl]-1,3-benzoxazol-5-yl]-imino-oxo-(trifluoromethyl)-λ^6-sulfane], the percent effect (mortality or growth inhibition) at 200 ppm in test [1] and in test [3] was no less than 80% each time. This molecule came in with a percent control (mortality, anti-feeding effect or growth inhibition) at 200 ppm in test [2] of no less than 80%.
Consider `CCN=S(=O)(c1ccc2oc(-c3ncc(-c4nccc(C(F)(F)F)n4)cc3S(=O)(=O)CC)nc2c1)C(F)(F)F` (stereo not shown) [P41, ethylimino-[2-[3-ethylsulfonyl-5-[4-(trifluoromethyl)pyrimidin-2-yl]-2-pyridyl]-1,3-benzoxazol-5-yl]-oxo-(trifluoromethyl)-λ^6-sulfane], for which the percent effect (mortality or growth inhibition) at 200 ppm in test [1] and in test [3] was no less than 80% in each case. The percent control (mortality, anti-feeding effect or growth inhibition) at 200 ppm in test [2] is no less than 80%.
As to `CCS(=O)(=O)c1ccc(-c2ncccn2)nc1-c1nc2cc(S(=N)(=O)C(F)(F)F)ccc2o1` (stereo not shown) [P54, [2-(3-ethylsulfonyl-6-pyrimidin-2-yl-2-pyridyl)-1,3-benzoxazol-5-yl]-imino-oxo-(trifluoromethyl)-λ^6-sulfane], the percent effect (mortality or growth inhibition) at 200 ppm in test [1] and in test [3] was no less than 80% throughout. In addition, in test [2], the percent control (mortality, anti-feeding effect or growth inhibition) at 200 ppm is no less than 80%.
As to `CCN=S(=O)(c1ccc2oc(-c3ncc(-n4ccc(C(F)(F)F)n4)cc3S(=O)(=O)CC)nc2c1)C(F)(F)F` (stereo not shown) [P5, ethylimino-[2-[3-ethylsulfonyl-5-[3-(trifluoromethyl)pyrazol-1-yl]-2-pyridyl]-1,3-benzoxazol-5-yl]-oxo-(trifluoromethyl)-λ^6-sulfane], the percent effect (mortality or growth inhibition) at 200 ppm in test [1] and in test [3] was no less than 80% in each case.
Turning to `CCN=S(=O)(c1ccc2oc(-c3nc(-c4ncccn4)ccc3S(=O)(=O)CC)nc2c1)C(F)(F)F` (stereo not shown) [P55, ethylimino-[2-(3-ethylsulfonyl-6-pyrimidin-2-yl-2-pyridyl)-1,3-benzoxazol-5-yl]-oxo-(trifluoromethyl)-λ^6-sulfane], the percent effect (mortality or growth inhibition) at 200 ppm in test [1] and in test [3] was no less than 80% in each case. The molecule further showed a percent control (mortality, anti-feeding effect or growth inhibition) at 200 ppm in test [2] of no less than 80%.
Regarding `CCS(=O)(=O)c1ccc(-n2cnc(Cl)n2)nc1-c1nc2cc(S(=N)(=O)C(F)(F)F)ccc2n1C` (stereo not shown) [P46, [2-[6-(3-chloro-1,2,4-triazol-1-yl)-3-ethylsulfonyl-2-pyridyl]-1-methyl-benzimidazol-5-yl]-imino-oxo-(trifluoromethyl)-λ^6-sulfane], the percent effect (mortality or growth inhibition) at 200 ppm in test [1] and in test [3] was no less than 80% each time. In test [2], this molecule had a percent control (mortality, anti-feeding effect or growth inhibition) at 200 ppm of no less than 80%.
`CCS(=O)(=O)c1cc(OCC(F)(F)F)cnc1-c1nc2cc(S(=N)(=O)C(F)(F)F)ccc2o1` (stereo not shown) [P23, [2-[3-ethylsulfonyl-5-(2,2,2-trifluoroethoxy)-2-pyridyl]-1,3-benzoxazol-5-yl]-imino-oxo-(trifluoromethyl)-λ^6-sulfane]: the percent effect (mortality or growth inhibition) at 200 ppm in test [1] and in test [3] was no less than 80% each time. Further, the percent control (mortality, anti-feeding effect or growth inhibition) at 200 ppm in test [2] is no less than 80%.
Regarding `CCS(=O)(=O)c1cc(N(C)C(C)=O)cnc1-c1nc2cc(S(=N)(=O)C(F)(F)F)ccc2o1` (stereo not shown) [P4, N-[5-ethylsulfonyl-6-[5-(trifluoromethylsulfonimidoyl)-1,3-benzoxazol-2-yl]-3-pyridyl]-N-methyl-acetamide], the percent effect (mortality or growth inhibition) at 200 ppm in test [1] and in test [3] was no less than 80% each time. This molecule came in with a percent control (mortality, anti-feeding effect or growth inhibition) at 200 ppm in test [2] of no less than 80%.
As for `CCS(=O)(=O)c1cc(-n2ccc(Cl)n2)cnc1-c1nc2cc(S(=N)(=O)C(F)(F)F)ccc2o1` (stereo not shown) [P37, [2-[5-(3-chloropyrazol-1-yl)-3-ethylsulfonyl-2-pyridyl]-1,3-benzoxazol-5-yl]-imino-oxo-(trifluoromethyl)-λ^6-sulfane], the percent effect (mortality or growth inhibition) at 200 ppm in test [1] and in test [3] was no less than 80% each time. In addition, the percent control (mortality, anti-feeding effect or growth inhibition) at 200 ppm in test [2] is no less than 80%.
On to `CCS(=O)(=O)c1ccc(-n2cncn2)nc1-c1nc2cc(S(=N)(=O)C(F)(F)F)ccc2o1` (stereo not shown) [P56, [2-[3-ethylsulfonyl-6-(1,2,4-triazol-1-yl)-2-pyridyl]-1,3-benzoxazol-5-yl]-imino-oxo-(trifluoromethyl)-λ^6-sulfane], for which the percent effect (mortality or growth inhibition) at 200 ppm in test [1] and in test [3] was no less than 80% in each case.
For `CCN=S(=O)(c1ccc2c(c1)nc(-c1nc(-n3cnc(C(F)(F)F)n3)ccc1S(=O)(=O)CC)n2C)C(F)(F)F` (stereo not shown) [P49, ethylimino-[2-[3-ethylsulfonyl-6-[3-(trifluoromethyl)-1,2,4-triazol-1-yl]-2-pyridyl]-1-methyl-benzimidazol-5-yl]-oxo-(trifluoromethyl)-λ^6-sulfane], the percent effect (mortality or growth inhibition) at 200 ppm in test [1] and in test [3] was no less than 80% throughout. This molecule returned a percent control (mortality, anti-feeding effect or growth inhibition) at 200 ppm in test [2] of no less than 80%.
For the molecule `CCN=S(=O)(c1ccc2oc(-c3ncc(-c4ncc(Cl)cn4)cc3S(=O)(=O)CC)nc2c1)C(F)(F)F` (stereo not shown) [P43, [2-[5-(5-chloropyrimidin-2-yl)-3-ethylsulfonyl-2-pyridyl]-1,3-benzoxazol-5-yl]-ethylimino-oxo-(trifluoromethyl)-λ^6-sulfane], the percent effect (mortality or growth inhibition) at 200 ppm in test [1] and in test [3] was no less than 80% each time. Moreover, in test [2], the percent control (mortality, anti-feeding effect or growth inhibition) at 200 ppm is no less than 80%.
As to `CCN=S(=O)(c1ccc2oc(-c3nc(-n4cncn4)ccc3S(=O)(=O)CC)nc2c1)C(F)(F)F` (stereo not shown) [P39, ethylimino-[2-[3-ethylsulfonyl-6-(1,2,4-triazol-1-yl)-2-pyridyl]-1,3-benzoxazol-5-yl]-oxo-(trifluoromethyl)-λ^6-sulfane], the percent effect (mortality or growth inhibition) at 200 ppm in test [3] was no less than 80%.
`CCS(=O)(=O)c1cccnc1-c1nc2cc(S(=O)(=NCC(F)(F)F)C(F)(F)F)ccc2o1` (stereo not shown) [P14, [2-(3-ethylsulfonyl-2-pyridyl)-1,3-benzoxazol-5-yl]-oxo-(2,2,2-trifluoroethylimino)-(trifluoromethyl)-λ^6-sulfane]: the percent effect (mortality or growth inhibition) at 200 ppm in test [1] and in test [3] was no less than 80% in each case. The molecule also displayed a percent control (mortality, anti-feeding effect or growth inhibition) at 200 ppm in test [2] of no less than 80%.
In the case of `CCS(=O)(=O)c1cc(C2(C#N)CC2)cnc1-c1nc2cc(S(=O)(=NC3CC3)C(F)(F)F)ccc2o1` (stereo not drawn) [P30, 1-[6-[5-[N-cyclopropyl-S-(trifluoromethyl)sulfonimidoyl]-1,3-benzoxazol-2-yl]-5-ethylsulfonyl-3-pyridyl]cyclopropanecarbonitrile], the percent effect (mortality or growth inhibition) at 200 ppm in test [1] and in test [3] was no less than 80% in each case. The percent control (mortality, anti-feeding effect or growth inhibition) at 200 ppm in test [2] is no less than 80%.

Source of the values: patent publication US12503461B2, “Pesticidally active heterocyclic derivatives with sulfur and sulfoximine containing substituents” (SYNGENTA CROP PROTECTION AG, priority 2019, dated 2025).
